In patent publication US12410164B2, “Heterocyclic compounds and medical use thereof” (FONDAZIONE TELETHON, priority 2018, dated 2025):
“Also recorded” adds a separate entry of the source.

Experiments:
F508del-CFTR [1] = biological target: T1, F508del-CFTR (Homo sapiens, UniProt P13569, DEL508-508); experiment: Analysis of F508del-CFTR maturation by immunoblot in CFBE41o− cells; format: cell-based; design: expressed in transfected cells; host or cells: CFBE41o- cells with expression of F508del-CFTR and HS-YFP (generated as in Sondo et al. 2011); conditions: compound 10 μM plus VX-809 1 μM, 24 hr
T1 sequence (P13569 with tags, fused parts or gaps DEL508-508): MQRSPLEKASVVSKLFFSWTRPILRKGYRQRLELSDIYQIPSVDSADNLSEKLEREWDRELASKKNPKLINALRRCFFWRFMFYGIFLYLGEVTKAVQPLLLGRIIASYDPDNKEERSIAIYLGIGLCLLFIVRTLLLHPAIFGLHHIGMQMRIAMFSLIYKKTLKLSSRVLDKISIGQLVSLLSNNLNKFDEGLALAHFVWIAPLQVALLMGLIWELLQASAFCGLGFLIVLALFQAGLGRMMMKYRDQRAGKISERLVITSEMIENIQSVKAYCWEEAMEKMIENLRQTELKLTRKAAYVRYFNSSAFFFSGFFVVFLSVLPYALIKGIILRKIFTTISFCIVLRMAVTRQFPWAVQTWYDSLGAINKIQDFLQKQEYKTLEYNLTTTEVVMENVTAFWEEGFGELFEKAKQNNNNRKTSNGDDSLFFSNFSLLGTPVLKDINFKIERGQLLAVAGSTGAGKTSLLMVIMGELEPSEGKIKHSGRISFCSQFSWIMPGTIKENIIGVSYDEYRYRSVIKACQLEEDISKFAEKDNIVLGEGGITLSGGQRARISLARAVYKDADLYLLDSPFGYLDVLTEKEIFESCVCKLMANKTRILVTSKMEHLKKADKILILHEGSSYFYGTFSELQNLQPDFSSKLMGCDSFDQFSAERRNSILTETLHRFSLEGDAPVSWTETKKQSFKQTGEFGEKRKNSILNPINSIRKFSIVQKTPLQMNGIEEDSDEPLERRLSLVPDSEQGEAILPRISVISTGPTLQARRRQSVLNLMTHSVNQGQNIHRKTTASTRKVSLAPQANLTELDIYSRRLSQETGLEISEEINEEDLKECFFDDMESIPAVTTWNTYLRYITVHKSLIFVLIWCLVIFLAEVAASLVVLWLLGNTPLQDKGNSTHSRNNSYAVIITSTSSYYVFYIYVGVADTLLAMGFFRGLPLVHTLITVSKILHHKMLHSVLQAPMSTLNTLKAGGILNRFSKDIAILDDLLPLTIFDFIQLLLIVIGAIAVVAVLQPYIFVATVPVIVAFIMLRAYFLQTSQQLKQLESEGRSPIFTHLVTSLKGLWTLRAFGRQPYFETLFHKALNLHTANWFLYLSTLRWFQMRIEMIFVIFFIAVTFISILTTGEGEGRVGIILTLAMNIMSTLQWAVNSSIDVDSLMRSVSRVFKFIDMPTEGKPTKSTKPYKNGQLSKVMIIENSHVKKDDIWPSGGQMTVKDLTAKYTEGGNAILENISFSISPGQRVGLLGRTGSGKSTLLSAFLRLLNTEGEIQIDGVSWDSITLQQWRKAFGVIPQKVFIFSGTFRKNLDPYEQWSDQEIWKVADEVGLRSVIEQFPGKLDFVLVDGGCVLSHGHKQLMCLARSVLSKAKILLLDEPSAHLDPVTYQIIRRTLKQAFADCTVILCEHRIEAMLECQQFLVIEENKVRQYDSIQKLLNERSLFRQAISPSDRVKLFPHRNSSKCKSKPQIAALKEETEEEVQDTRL
Method: CFBE41o− cells were grown to confluence on 60-mm diameter dishes and lysed in RIPA buffer containing a complete protease inhibitor (Roche; cat. n. 11697498001). Cell lysates were centrifuged at 12000 rpm at 4° C. for 10 min. Supernatant protein concentration was calculated using the BCA assay (Euroclone; cat. n. EMP014500) following the manufacturer's instructions. Equal amounts of total protein content (30 μg) were separated onto 10% Criterion TGX Precast gels (Bio-rad laboratories Inc.; cat. n. 4561033), transferred to nitrocellulose membrane with Trans-Blot Turbo system (Bio-rad Laboratories Inc.) and analyzed by Western blotting. Primary antibody for CFTR was anti-CFTR 596 (University of North Carolina at Chapel Hill, and Cystic Fibrosis Foundation Therapeutics, see Cui L, et al. J. Mol Biol 2007, 365, 981-994) at 1:5000 dilution. As secondary antibody, anti-mouse HRP-conjugated Ab 97023 (Abcam) was used at 1:10000 dilution. Results were subsequently visualized by chemiluminescence using the SuperSignal West Femto Substrate (Thermo Scientific) and the Molecular Imager ChemiDoc XRS System.
To analyze the mechanism of action of the compounds of the invention, two types of experiments were carried out. In the first type of experiment, the electrophoretic mobility of F508del-CFTR protein was determined by immunoblot assay. This is a frequently used method to assess the effect of correctors at the protein level. In control conditions, F508del-CFTR migrates predominantly as a single band of 150 kDa called “band B”. This is the immature form of the protein residing in the endoplasmic reticulum. When the protein folding and stability is improved by correctors, an additional band appears at higher molecular weight (170 kDa). This is the so-called band C, which represents the mature form of the CFTR protein that has reached the Golgi compartment and acquired full glycosylation.

F508del-CFTR [2] = biological target: T1, F508del-CFTR; experiment: HS-YFP kinetic fluorescence (iodide quenching rate) assay in CFBE41o− cells; format: cell-based; design: expressed in transfected cells; host or cells: CFBE41o- cells with expression of F508del-CFTR and HS-YFP (generated as in Sondo et al. 2011); conditions: for AI (%) additivity index: Table 1, compound at 10 μM plus VX-809, (QRTOT − QRVX)/QRVX, HS-YFP assay; for structure-activity comparison of corrector potency/activity: relative to the analogue
How it was run: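 CFBE41o- cells co-expressing F508del-CFTR and HS-YFP, treated 24 h with compound (0.1-0.2% DMSO), then stimulated with 20 μM forskolin plus 50 μM genistein. Fluorescence was read for 14 s during NaI injection. Background-subtracted, normalized traces were fitted exponentially to give maximum quenching rate (QR).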

CCOC(=O)c1c(Br)c2c(n1Cc1cccc(C)c1)-c1[nH]c(=O)c(S(=O)(=O)c3ccccc3)cc1CC2 [PP028, Ethyl 3-bromo 1-(3-methylbenzyl)-8-oxo-7-(phenylsulfonyl)-4,5,8,9-tetrahydro-1H-pyrrolo[3,2-h]quinoline-2-carboxylate]
band C (mature form) expression versus VX-809 alone (F508del-CFTR [1]): markedly enhances the abundance of the mature form of the protein; also recorded: marked increase in band C expression | AI (%) additivity index (F508del-CFTR [2]): 278% | structure-activity comparison of corrector potency/activity (F508del-CFTR [2]): important increase in efficiency in combination with the VX-809 and potency

CCOC(=O)c1c(Br)c2c(n1Cc1ccc(C)cc1)-c1[nH]c(=O)c(S(=O)(=O)c3ccccc3)cc1CC2 [PP008, Ethyl 7-(benzenesulfonyl)-3-bromo-1-[(4-methylphenyl)methyl]-8-oxo-4,5,8,9-tetrahydro-1H-pyrrolo[3,2-h]quinoline-2-carboxylate]
band C (mature form) expression versus VX-809 alone (F508del-CFTR [1]): markedly enhances the abundance of the mature form of the protein; also recorded: marked increase in band C expression | AI (%) additivity index (F508del-CFTR [2]): 207% | F508del-CFTR activity (quenching rate) of combination with VX-809 (F508del-CFTR [2]; compound plus VX-809 1 μM, 24 h): strong synergistic effect | structure-activity comparison of corrector potency/activity (F508del-CFTR [2]): important increase in potency; also recorded: more potent than the non-halogenated analogues
